# Measurements from PubChem BioAssay AID2060503 (Molecular Pharmacology Branch, DTP, NCI, 2025).
# Test system: 817829-284-R-J1-PDC complex spheroids, viability
# Assay: Anticancer human tumor 817829-284-R-J1-PDC patient-derived colon adenocarcinoma cell line growth inhibition [GQUAD]
# Settings: for IC50: curve of first compound; for viability, T/C: stronger effect = lower value
# How it was run: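 Viability of tumor cells grown as complex spheroids with endothelial and stromal cells, exposed to drug combinations. Top concentration at or near clinical Cmax (else 10 microM), diluted in half-log increments.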
# [1] = second compound 0.0316 µM, first compound 0.0316 µM
# [2] = second compound 0.0316 µM, first compound 0.1 µM
# [3] = second compound 0.0316 µM, first compound 0.316 µM
# [4] = second compound 0.0316 µM, first compound 1 µM
# [5] = second compound 0.0316 µM, first compound 3.16 µM
# [6] = second compound 0.0316 µM, first compound 10 µM
# [7] = second compound 0.1 µM, first compound 0.0316 µM
# [8] = second compound 0.1 µM, first compound 0.1 µM
# [9] = second compound 0.1 µM, first compound 0.316 µM
# [10] = second compound 0.1 µM, first compound 1 µM
# [11] = second compound 0.1 µM, first compound 3.16 µM
# [12] = second compound 0.1 µM, first compound 10 µM
# [13] = second compound 0.316 µM, first compound 0.0316 µM
# [14] = second compound 0.316 µM, first compound 0.1 µM
# [15] = second compound 0.316 µM, first compound 0.316 µM
# [16] = second compound 0.316 µM, first compound 1 µM
# [17] = second compound 0.316 µM, first compound 3.16 µM
# [18] = second compound 0.316 µM, first compound 10 µM
# [19] = second compound 1 µM, first compound 0.0316 µM
# [20] = second compound 1 µM, first compound 0.1 µM
# [21] = second compound 1 µM, first compound 0.316 µM
# [22] = second compound 1 µM, first compound 1 µM
# [23] = second compound 1 µM, first compound 3.16 µM
# [24] = second compound 1 µM, first compound 10 µM
# [25] = second compound 3.16 µM, first compound 0.0316 µM
# [26] = second compound 3.16 µM, first compound 0.1 µM
# [27] = second compound 3.16 µM, first compound 0.316 µM
# [28] = second compound 3.16 µM, first compound 1 µM
# [29] = second compound 3.16 µM, first compound 3.16 µM
# [30] = second compound 3.16 µM, first compound 10 µM
# [31] = second compound 10 µM, first compound 0.0316 µM
# [32] = second compound 10 µM, first compound 0.1 µM
# [33] = second compound 10 µM, first compound 0.316 µM
# [34] = second compound 10 µM, first compound 1 µM
# [35] = second compound 10 µM, first compound 3.16 µM
# [36] = second compound 10 µM, first compound 10 µM
# 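Further: spheroids exposed to agents for 7 days before readout.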
# 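Wherever viability, T/C is given: percent viability relative to DMSO vehicle control taken as 100%.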
smiles,measurement,setting,value
CC(C)n1c(=O)n(C)c2cnc3cc(F)c(-c4ccc(OCCCN5CCCCC5)nc4)cc3c21 + Cc1[nH]c2ccc(F)cc2c1-c1nc2c3cccnc3c3ncccc3c2[nH]1,IC50,second compound 0.0316 µM,> 10 µM
same,IC50,second compound 0.1 µM,> 10 µM
same,IC50,second compound 0.316 µM,> 10 µM
same,IC50,second compound 1 µM,7.83 µM
same,IC50,second compound 3.16 µM,4.57 µM
same,IC50,second compound 10 µM,0.549 µM
same,"viability, T/C",[1],120%
same,"viability, T/C",[2],82.6%
same,"viability, T/C",[3],84.8%
same,"viability, T/C",[4],94.4%
same,"viability, T/C",[5],104%
same,"viability, T/C",[6],94.9%
same,"viability, T/C",[7],90.8%
same,"viability, T/C",[8],106%
same,"viability, T/C",[9],95.8%
same,"viability, T/C",[10],107%
same,"viability, T/C",[11],107%
same,"viability, T/C",[12],117%
same,"viability, T/C",[13],79.7%
same,"viability, T/C",[14],99.8%
same,"viability, T/C",[15],103%
same,"viability, T/C",[16],103%
same,"viability, T/C",[17],117%
same,"viability, T/C",[18],103%
same,"viability, T/C",[19],87.5%
same,"viability, T/C",[20],104%
same,"viability, T/C",[21],120%
same,"viability, T/C",[22],102%
same,"viability, T/C",[23],115%
same,"viability, T/C",[24],35%
same,"viability, T/C",[25],76.6%
same,"viability, T/C",[26],90.9%
same,"viability, T/C",[27],64.6%
same,"viability, T/C",[28],78%
same,"viability, T/C",[29],69.8%
same,"viability, T/C",[30],7.73%
same,"viability, T/C",[31],65.2%
same,"viability, T/C",[32],73.3%
same,"viability, T/C",[33],49.2%
same,"viability, T/C",[34],46.5%
same,"viability, T/C",[35],21.9%
same,"viability, T/C",[36],5.4%
CC1COCCN1c1cc(-c2ccnn2C)c2ccnc(-c3ccn[nH]3)c2n1 (stereo unspecified) + Cc1[nH]c2ccc(F)cc2c1-c1nc2c3cccnc3c3ncccc3c2[nH]1,IC50,second compound 0.0316 µM,0.0487 µM
same,IC50,second compound 0.1 µM,< 0.0316 µM
same,IC50,second compound 0.316 µM,< 0.0316 µM
same,IC50,second compound 1 µM,< 0.0316 µM
same,IC50,second compound 3.16 µM,< 0.0316 µM
same,IC50,second compound 10 µM,< 0.0316 µM
same,"viability, T/C",[1],72.5%
same,"viability, T/C",[2],12.9%
same,"viability, T/C",[3],9.49%
same,"viability, T/C",[4],4.92%
same,"viability, T/C",[5],6.02%
same,"viability, T/C",[6],4.47%
same,"viability, T/C",[7],46.3%
same,"viability, T/C",[8],19.1%
same,"viability, T/C",[9],8.08%
same,"viability, T/C",[10],6.91%
same,"viability, T/C",[11],5.94%
same,"viability, T/C",[12],4.22%
same,"viability, T/C",[13],48.6%
same,"viability, T/C",[14],19.7%
same,"viability, T/C",[15],9.27%
same,"viability, T/C",[16],7.38%
same,"viability, T/C",[17],5.29%
same,"viability, T/C",[18],4.46%
same,"viability, T/C",[19],38.1%
same,"viability, T/C",[20],19.6%
same,"viability, T/C",[21],7.66%
same,"viability, T/C",[22],6.25%
same,"viability, T/C",[23],5.62%
same,"viability, T/C",[24],4.21%
same,"viability, T/C",[25],35.8%
same,"viability, T/C",[26],8.61%
same,"viability, T/C",[27],5.3%
same,"viability, T/C",[28],3.85%
same,"viability, T/C",[29],3.53%
same,"viability, T/C",[30],3.13%
same,"viability, T/C",[31],28.2%
same,"viability, T/C",[32],4.74%
same,"viability, T/C",[33],3.18%
same,"viability, T/C",[34],3.81%
same,"viability, T/C",[35],2.63%
same,"viability, T/C",[36],2.34%
CC1COCCN1c1cc(C2(O)CC3CCC(C2)O3)c2cnn(-c3ccn[nH]3)c2n1 (stereo unspecified) + Cc1[nH]c2ccc(F)cc2c1-c1nc2c3cccnc3c3ncccc3c2[nH]1,IC50,second compound 0.0316 µM,< 0.0316 µM
same,IC50,second compound 0.1 µM,< 0.0316 µM
same,IC50,second compound 0.316 µM,< 0.0316 µM
same,IC50,second compound 1 µM,< 0.0316 µM
same,IC50,second compound 3.16 µM,< 0.0316 µM
same,IC50,second compound 10 µM,< 0.0316 µM
same,"viability, T/C",[1],40.4%
same,"viability, T/C",[2],9.87%
same,"viability, T/C",[3],7.43%
same,"viability, T/C",[4],5.2%
same,"viability, T/C",[5],5.12%
same,"viability, T/C",[6],3.63%
same,"viability, T/C",[7],32%
same,"viability, T/C",[8],12.5%
same,"viability, T/C",[9],7.69%
same,"viability, T/C",[10],6.04%
same,"viability, T/C",[11],5.1%
same,"viability, T/C",[12],3.62%
same,"viability, T/C",[13],28.5%
same,"viability, T/C",[14],13.2%
same,"viability, T/C",[15],6.99%
same,"viability, T/C",[16],5.84%
same,"viability, T/C",[17],5.13%
same,"viability, T/C",[18],3.71%
same,"viability, T/C",[19],30.4%
same,"viability, T/C",[20],11.7%
same,"viability, T/C",[21],7.32%
same,"viability, T/C",[22],6.4%
same,"viability, T/C",[23],4.91%
same,"viability, T/C",[24],3.49%
same,"viability, T/C",[25],19.1%
same,"viability, T/C",[26],6.27%
same,"viability, T/C",[27],4.26%
same,"viability, T/C",[28],3.69%
same,"viability, T/C",[29],3.38%
same,"viability, T/C",[30],1.97%
same,"viability, T/C",[31],6.89%
same,"viability, T/C",[32],2.8%
same,"viability, T/C",[33],4.24%
same,"viability, T/C",[34],2.85%
same,"viability, T/C",[35],2.85%
same,"viability, T/C",[36],1.69%
